Source: patent US11708318B2, “Polymorphic forms of RAD1901-2HCL” (Radius Pharmaceuticals, Inc., priority 2017, dated 2023)
Entries after “also recorded” stand apart in the source; their conditions may differ. Like-named read-outs stand apart in the source and are kept apart here.

Test: Solubility assessment of Sample 1 (majorly Form 1) in 24 solvent systems
Format: physicochemical
Conditions: for solubility: thermodynamic from solid
Experimental: Solubility assessment was carried out on the Sample 1 of RAD1901-2HCl (majorly Form 1 shown by XRPD) in 24 solvent systems in HPLC vials (sample IDs: A1 to A24). RAD1901-2HCl (25 mg) was treated with increasing volumes of solvent until the material fully dissolved or until a maximum of 60 vol had been used (Table 13).
After each addition of solvent, the system was stirred for 5 to 10 minutes at 25° C., then shaken at 50° C. for 5 to 10 minutes, and observations made. Samples were allowed to stand at room temperature for 5 min before the addition of a new aliquot of solvent. After the assessment was completed, the suspensions obtained were matured (maturation) and the clear solutions were cooled (cooling) and slowly evaporated (evaporation) as described below. All solids recovered from maturation, cooling and evaporation experiments were analyzed by high resolution XRPD.

For CCNCCc1ccc(CN(CC)c2cc(OC)ccc2[C@@H]2CCc3cc(O)ccc3C2)cc1.Cl.Cl [Sample 1], the solubility (acetonitrile, 50 °C, organic solvent or mixture, Acetonitrile, sample ID A19, read-out: Solubility assessment 40 vol.) was < 25 mg/mL, the solubility (acetonitrile, 50 °C, organic solvent or mixture, Acetonitrile, sample ID A19, read-out: Solubility assessment 60 vol.) was < 16.7 mg/mL and the solubility (dichloromethane, 50 °C, organic solvent or mixture, Dichloromethane, sample ID A18, read-out: Solubility assessment 10 vol.) was < 100 mg/mL. For the same compound, the solubility (dichloromethane, 50 °C, organic solvent or mixture, Dichloromethane, sample ID A18, read-out: Solubility assessment 20 vol.) was < 50 mg/mL, the solubility (dichloromethane, 50 °C, organic solvent or mixture, Dichloromethane, sample ID A18, read-out: Solubility assessment 40 vol.) was < 25 mg/mL and the solubility (dichloromethane, organic solvent or mixture, Dichloromethane, sample ID A18, read-out: Solubility assessment 60 vol.) was < 16.7 mg/mL. For the same compound, the solubility (dimethyl sulfoxide, 50 °C, organic solvent or mixture, Dimethyl sulfoxide, sample ID A11, read-out: Solubility assessment 10 vol.) was > 100 mg/mL, the solubility (ethanol, 50 °C, organic solvent or mixture, Ethanol, sample ID A10, read-out: Solubility assessment 10 vol.) was < 100 mg/mL and the solubility (ethanol, 50 °C, organic solvent or mixture, Ethanol, sample ID A10, read-out: Solubility assessment 20 vol.) was < 50 mg/mL. The solubility (ethanol, 50 °C, organic solvent or mixture, Ethanol, sample ID A10, read-out: Solubility assessment 40 vol.) was < 25 mg/mL, the solubility (ethanol, organic solvent or mixture, Ethanol, sample ID A10, read-out: Solubility assessment 60 vol.) was < 16.7 mg/mL and the solubility (ethyl acetate, 50 °C, organic solvent or mixture, Ethyl acetate, sample ID A3, read-out: Solubility assessment 10 vol.) was < 100 mg/mL. For the same compound, the solubility (ethyl acetate, 50 °C, organic solvent or mixture, Ethyl acetate, sample ID A3, read-out: Solubility assessment 20 vol.) was < 50 mg/mL, the solubility (ethyl acetate, 50 °C, organic solvent or mixture, Ethyl acetate, sample ID A3, read-out: Solubility assessment 40 vol.) was < 25 mg/mL and the solubility (ethyl acetate, organic solvent or mixture, Ethyl acetate, sample ID A3, read-out: Solubility assessment 60 vol.) was < 16.7 mg/mL. The solubility (isopropyl acetate, 50 °C, organic solvent or mixture, Isopropyl acetate, sample ID A4, read-out: Solubility assessment 10 vol.) was < 100 mg/mL, the solubility (isopropyl acetate, 50 °C, organic solvent or mixture, Isopropyl acetate, sample ID A4, read-out: Solubility assessment 20 vol.) was < 50 mg/mL and the solubility (isopropyl acetate, 50 °C, organic solvent or mixture, Isopropyl acetate, sample ID A4, read-out: Solubility assessment 40 vol.) was < 25 mg/mL. For the same compound, the solubility (isopropyl acetate, organic solvent or mixture, Isopropyl acetate, sample ID A4, read-out: Solubility assessment 60 vol.) was < 16.7 mg/mL, the solubility (methanol, 50 °C, organic solvent or mixture, Methanol, sample ID A20, read-out: Solubility assessment 10 vol.) was 50 to 100 mg/mL and the solubility (methanol, 50 °C, organic solvent or mixture, Methanol, sample ID A20, read-out: Solubility assessment 20 vol.) was 50 to 100 mg/mL. For the same compound, the solubility (n-heptane, 50 °C, organic solvent or mixture, n-Heptane, sample ID A1, read-out: Solubility assessment 10 vol.) was < 100 mg/mL, the solubility (n-heptane, 50 °C, organic solvent or mixture, n-Heptane, sample ID A1, read-out: Solubility assessment 20 vol.) was < 50 mg/mL and the solubility (n-heptane, 50 °C, organic solvent or mixture, n-Heptane, sample ID A1, read-out: Solubility assessment 40 vol.) was < 25 mg/mL. For the same compound, the solubility (n-heptane, organic solvent or mixture, n-Heptane, sample ID A1, read-out: Solubility assessment 60 vol.) was < 16.7 mg/mL, the solubility (nitromethane, 50 °C, organic solvent or mixture, Nitromethane, sample ID A21, read-out: Solubility assessment 10 vol.) was < 100 mg/mL and the solubility (nitromethane, 50 °C, organic solvent or mixture, Nitromethane, sample ID A21, read-out: Solubility assessment 20 vol.) was < 50 mg/mL. The solubility (nitromethane, 50 °C, organic solvent or mixture, Nitromethane, sample ID A21, read-out: Solubility assessment 40 vol.) was < 25 mg/mL, the solubility (nitromethane, organic solvent or mixture, Nitromethane, sample ID A21, read-out: Solubility assessment 60 vol.) was < 16.7 mg/mL and the solubility (propyl acetate, 50 °C, organic solvent or mixture, Propyl acetate, sample ID A2, read-out: Solubility assessment 10 vol.) was < 100 mg/mL. For the same compound, the solubility (propyl acetate, 50 °C, organic solvent or mixture, Propyl acetate, sample ID A2, read-out: Solubility assessment 20 vol.) was < 50 mg/mL, the solubility (propyl acetate, 50 °C, organic solvent or mixture, Propyl acetate, sample ID A2, read-out: Solubility assessment 40 vol.) was < 25 mg/mL and the solubility (propyl acetate, organic solvent or mixture, Propyl acetate, sample ID A2, read-out: Solubility assessment 60 vol.) was < 16.7 mg/mL. For the same compound, the solubility (tetrahydrofuran, 50 °C, organic solvent or mixture, Tetrahydrofuran, sample ID A17, read-out: Solubility assessment 10 vol.) was < 100 mg/mL, the solubility (tetrahydrofuran, 50 °C, organic solvent or mixture, Tetrahydrofuran, sample ID A17, read-out: Solubility assessment 20 vol.) was < 50 mg/mL and the solubility (tetrahydrofuran, 50 °C, organic solvent or mixture, Tetrahydrofuran, sample ID A17, read-out: Solubility assessment 40 vol.) was < 25 mg/mL. The solubility (tetrahydrofuran, organic solvent or mixture, Tetrahydrofuran, sample ID A17, read-out: Solubility assessment 60 vol.) was < 16.7 mg/mL, the solubility (toluene, 50 °C, organic solvent or mixture, Toluene, sample ID A15, read-out: Solubility assessment 10 vol.) was < 100 mg/mL and the solubility (toluene, 50 °C, organic solvent or mixture, Toluene, sample ID A15, read-out: Solubility assessment 20 vol.) was < 50 mg/mL. For the same compound, the solubility (toluene, 50 °C, organic solvent or mixture, Toluene, sample ID A15, read-out: Solubility assessment 40 vol.) was < 25 mg/mL, the solubility (toluene, organic solvent or mixture, Toluene, sample ID A15, read-out: Solubility assessment 60 vol.) was < 16.7 mg/mL and the Solubility in water (water) was “highly soluble; also recorded: high solubility”. It also gave a solubility (water, 50 °C, water, Water, sample ID A12, read-out: Solubility assessment 10 vol.) of 50 to 100 mg/mL and a solubility (water, 50 °C, water, Water, sample ID A12, read-out: Solubility assessment 20 vol.) of 50 to 100 mg/mL.
